From patent US9024038B2 (Purdue Research Foundation, priority 2010, dated 2015)
Read-outs that look alike come from different tables or passages of the source.

Tests used:
HIV-1LAI = test: Antiviral assay in MT-2 human T-lymphoid cells exposed to HIV-1LAI, MTT readout; assay type: cell-based
HIV-1 protease = HIV-1 protease (Human immunodeficiency virus type 1 group M subtype B, UniProt P04585); test: HIV-1 protease enzyme inhibitory assay (protocol of Toth and Marshall); assay type: biochemical; conditions: for fold change in Ki compared to inhibitor 35a: loss of enzyme inhibitory potency vs 35a
HIV-1MDR/MM (R5) = test: Antiviral activity in PHA-PBMs, p24 Gag, multidrug resistant clinical isolate; assay type: cell-based
Excerpt: (§1) Inhibitor 35a was examined for its activity against a panel of multidrug-resistant HIV-1 variants and compared it with that of other clinically available PIs including 1a. […] This inhibitor outperformed the clinically available PIs with high antiviral activity and seems to compare well with 1a, which currently stands as the leading PI for the treatment of drug-resistant HIV infection.

HIV-1MDR/G (X4) = test: as above; assay type: cell-based
Excerpt: as §1

HIV-1MDR/B (X4) = test: as above; assay type: cell-based; conditions: for EC50: PHA-PBMs, p24 Gag
Excerpt: as §1

HIV-1MDR/JSL (R5) = test: as above; assay type: cell-based; conditions: for EC50: PHA-PBMs, p24 Gag
Excerpt: as §1

HIV-1MDR/TM (X4) = test: as above; assay type: cell-based
Excerpt: as §1

HIV-1MRD/C (X4) = test: as above; assay type: cell-based
Excerpt: as §1

HIV-1ERS104pre (X4) = test: Antiviral activity in PHA-PBMs, inhibition of p24 Gag protein production, wild-type clinical isolate; assay type: cell-based
Excerpt: as §1

[1] = Human immunodeficiency virus 1, T-lymphoid, read-out: Antiviral IC50, (nM)
[2] = Human immunodeficiency virus 1, MT2
[3] = Human immunodeficiency virus 1, MT2, MT-2 cells, 100 TCID50s of HIV-1LAI, MTT assay, read-out: IC50
[4] = Human immunodeficiency virus 1, T-lymphoid

Structure (SMILES): COc1ccc(S(=O)(=O)N(CC(C)C)C[C@@H](O)[C@H](Cc2ccccc2)NC(=O)O[C@H]2CCO[C@H]3OC[C@H](OC)[C@H]32)cc1
- IC50 (HIV-1LAI; [1]): < 1 nM
- Ki (HIV-1 protease): < 0.1 nM

Structure (SMILES): COc1ccc(S(=O)(=O)N(CC(C)C)C[C@@H](O)[C@H](Cc2ccccc2)NC(=O)O[C@H]2CCO[C@H]3OC[C@H](O)[C@H]32)cc1
- IC50 (HIV-1LAI; [1]): < 10 nM
- Ki (HIV-1 protease): < 0.1 nM

Structure (SMILES): COc1ccc(C[C@H](NC(=O)O[C@H]2CCO[C@H]3OC[C@H](O)[C@H]32)[C@H](O)CN(CC(C)C)S(=O)(=O)c2ccc(OC)cc2)cc1
- IC50 (HIV-1LAI; [1]): < 10 nM
- Ki (HIV-1 protease): < 0.1 nM

Structure (SMILES): COc1ccc(S(=O)(=O)N(CC(C)C)C[C@@H](O)[C@H](Cc2ccccc2)NC(=O)O[C@H]2CCO[C@H]3OC[C@H](OCc4ccccc4)[C@H]32)cc1
- IC50 (HIV-1LAI; [1]): < 1 nM
- Ki (HIV-1 protease): < 1 nM

Structure (SMILES): CC(C)CN(C[C@@H](O)[C@H](Cc1ccccc1)NC(=O)O[C@H]1CCO[C@H]2OCC[C@H]21)S(=O)(=O)c1ccc2nc(NC(C)C)sc2c1
- IC50 (HIV-1LAI; [1]): < 1 nM
- Ki (HIV-1 protease): < 0.1 nM

Structure (SMILES): CC(C)CN(C[C@@H](O)[C@H](Cc1ccccc1)NC(=O)O[C@H]1CCO[C@H]2OCC(O)C21)S(=O)(=O)c1ccc2nc(NC(C)C)sc2c1 (stereo partly drawn)
- IC50 (HIV-1LAI; [1]): < 10 nM
- Ki (HIV-1 protease): < 0.1 nM

Structure (SMILES): CCNC1CO[C@@H]2OCC[C@H](OC(=O)N[C@@H](Cc3ccccc3)[C@H](O)CN(CC(C)C)S(=O)(=O)c3ccc4nc(NC(C)C)sc4c3)C12 (stereo partly drawn)
- IC50 (HIV-1LAI; [1]): < 10 nM
- Ki (HIV-1 protease): < 0.1 nM

Structure (SMILES): CC(C)CN(C[C@@H](O)[C@H](Cc1ccccc1)NC(=O)O[C@H]1CCO[C@H]2OCC[C@H]21)S(=O)(=O)c1ccc2nc(NC(C)C)oc2c1
- IC50 (HIV-1LAI; Human immunodeficiency virus 1, T-lymphoid, Examples Table 3, scored, read-out: Antiviral IC50): < 10 nM

Structure (SMILES): COc1ccc(C[C@H](NC(=O)O[C@H]2CCO[C@H]3OCC[C@H]32)[C@H](O)CN(CC(C)C)S(=O)(=O)c2ccc3nc(NC(C)C)oc3c2)cc1
- IC50 (HIV-1LAI; [1]): < 10 nM
- Ki (HIV-1 protease): < 0.1 nM

Structure (SMILES): COc1cccc(C[C@H](NC(=O)O[C@H]2CCO[C@H]3OCC[C@H]32)[C@H](O)CN(CC(C)C)S(=O)(=O)c2ccc3nc(NC(C)C)oc3c2)c1
- IC50 (HIV-1LAI; [1]): < 10 nM
- Ki (HIV-1 protease): < 0.1 nM

Structure (SMILES): COc1cccc(C[C@H](NC(=O)O[C@H]2CCO[C@H]3OCC[C@H]32)[C@H](O)CN(CC(C)C)S(=O)(=O)c2ccc3nc(NC(C)C)sc3c2)c1
- IC50 (HIV-1LAI; [1]): < 1 nM
- Ki (HIV-1 protease): < 0.1 nM

Structure (SMILES): COc1ccc(S(=O)(=O)N(CC(C)C)C[C@@H](O)[C@H](Cc2ccccc2)NC(=O)O[C@@H]2CCO[C@@H]3OCC[C@@H]32)cc1 [35b, (3aR,4R,7aS)-Hexahydro-2H-furo[2,3-b]pyran-4-yl((2S,3R)-3-hydroxy-4-(N-isobutyl-4-methoxyphenylsulfonamido)-1-phenylbutan-2-yl)carbamate]
- IC50 (HIV-1LAI; [2]): 19 nM
- IC50 (HIV-1LAI; Human immunodeficiency virus 1, MT2, read-out: antiviral activity ID50): 19 nM
- fold change in Ki compared to inhibitor 35a (HIV-1 protease): > 20 fold
- Ki (HIV-1 protease; read-out: Ki): 0.068 nM

Structure (SMILES): COc1ccc(S(=O)(=O)N(CC(C)C)C[C@@H](O)[C@H](Cc2ccccc2)NC(=O)O[C@H]2CCC[C@H]3OCC[C@@H]23)cc1 [35c, (3aR,4S,7aR)-Octahydrobenzofuran-4-yl(2S,3R)-3-hydroxy-4-(N-isobutyl-4-methoxyphenylsulfonamido)-1-phenylbutan-2-yl carbamate]
- IC50 (HIV-1LAI; [3]): 8 nM
- fold decrease in antiviral activity compared to inhibitor 35a (HIV-1LAI; MT-2 cells, HIV-1LAI): 16 fold
- fold change in Ki compared to inhibitor 35a (HIV-1 protease): 2 fold
- Ki (HIV-1 protease; read-out: Ki): 0.005 nM

Structure (SMILES): COc1ccc(S(=O)(=O)N(CC(C)C)C[C@@H](O)[C@H](Cc2ccccc2)NC(=O)O[C@H]2CCO[C@H]3CCC[C@H]32)cc1 [35d, (4S,4aR,7aS)-Octahydrocyclopenta[b]pyran-4-yl((2S,3R)-3-hydroxy-4-(N-isobutyl-4-methoxyphenylsulfonamido)-1-phenylbutan-2-yl)carbamate]
- Ki (HIV-1 protease; read-out: Ki): 1.43 nM

Structure (SMILES): COc1ccc(S(=O)(=O)N(CC(C)C)C[C@@H](O)[C@H](Cc2ccccc2)NC(=O)O[C@H]2CCC[C@H]3CCC[C@H]32)cc1 [35e]
- IC50 (HIV-1LAI; [2]): > 1000 nM
- antiviral activity (HIV-1LAI; MT-2 cells, HIV-1LAI): no appreciable antiviral activity
- Ki (HIV-1 protease; read-out: Ki): 9 nM

Structure (SMILES): COc1ccc(S(=O)(=O)N(CC(C)C)C[C@@H](O)[C@H](Cc2ccccc2)NC(=O)O[C@H]2CCO[C@H]3COC[C@H]32)cc1 [35f, (4S,4aS,7aR)-Hexahydro-2H-furo[3,4-b]pyran-4-yl((2S,3R)-3-hydroxy-4-(N-isobutyl-4-methoxyphenylsulfonamido)-1-phenylbutan-2-yl)carbamate]
- IC50 (HIV-1LAI; [2]): > 1000 nM
- antiviral activity (HIV-1LAI; MT-2 cells, HIV-1LAI): no antiviral activity
- protease inhibitory activity (HIV-1 protease): substantial loss of potency
- Ki (HIV-1 protease; read-out: Ki): 5.3 nM

Structure (SMILES): COc1ccc(S(=O)(=O)N(CC(C)C)C[C@@H](O)[C@H](Cc2ccccc2)NC(=O)O[C@H]2CO[C@H]3OCC[C@H]3C2)cc1 [35g, (3aS,5R,7aR)-Hexahydro-2H-furo[2,3-b]pyran-5-yl((2S,3R)-3-hydroxy-4-(N-isobutyl-4-methoxyphenylsulfonamido)-1-phenylbutan-2-yl)carbamate]
- protease inhibitory activity (HIV-1 protease): substantial loss of protease inhibitory activity
- Ki (HIV-1 protease; read-out: Ki): 0.11 nM

Structure (SMILES): COC(=O)N[C@H](C(=O)N[C@@H](Cc1ccccc1)[C@@H](O)CN(Cc1ccc(-c2ccccn2)cc1)NC(=O)[C@@H](NC(=O)OC)C(C)(C)C)C(C)(C)C [ATV]
- EC50 (HIV-1MDR/MM (R5); PHA-PBMs, p24 Gag): 205 ± 24 nM
- fold change of EC50 compared to wild-type HIV-1ERS104pre (HIV-1MDR/MM (R5); number in parentheses): 76 fold
- EC50 (HIV-1MDR/G (X4); PHA-PBMs, p24 Gag): 19 ± 8 nM
- fold change of EC50 compared to wild-type HIV-1ERS104pre (HIV-1MDR/G (X4); number in parentheses): 7 fold
- EC50 (HIV-1MDR/B (X4)): 470 ± 7 nM
- fold change of EC50 compared to wild-type HIV-1ERS104pre (HIV-1MDR/B (X4); number in parentheses): 174 fold
- EC50 (HIV-1MDR/JSL (R5)): 293 ± 99 nM
- fold change of EC50 compared to wild-type HIV-1ERS104pre (HIV-1MDR/JSL (R5); number in parentheses): 109 fold
- EC50 (HIV-1MDR/TM (X4); PHA-PBMs, p24 Gag): 75 ± 3 nM
- fold change of EC50 compared to wild-type HIV-1ERS104pre (HIV-1MDR/TM (X4); number in parentheses): 28 fold
- EC50 (HIV-1MRD/C (X4); PHA-PBMs, p24 Gag): 39 ± 3 nM
- fold change of EC50 compared to wild-type HIV-1ERS104pre (HIV-1MRD/C (X4); number in parentheses): 14 fold
- EC50 (HIV-1ERS104pre (X4)): 2.7 ± 0.6 nM

Structure (SMILES): Cc1cccc(C)c1OCC(=O)N[C@@H](Cc1ccccc1)[C@@H](O)C[C@H](Cc1ccccc1)NC(=O)[C@H](C(C)C)N1CCCNC1=O [LPV]
- EC50 (HIV-1MDR/B (X4)): > 1000 nM
- EC50 (HIV-1MDR/JSL (R5)): > 1000 nM

Structure (SMILES): CC(C)CN(C[C@@H](O)[C@H](Cc1ccccc1)NC(=O)O[C@H]1CCOC1)S(=O)(=O)c1ccc(N)cc1 [amprenavir, reference compound]
- IC50 (HIV-1LAI; [3]): 30 nM

Structure (SMILES): COc1ccc(C[C@H](NC(=O)O[C@H]2CCO[C@H]3OCC[C@H]32)[C@H](O)CN(CC(C)C)S(=O)(=O)c2ccc(N)cc2)cc1 [compound 1]
- IC50 (HIV-1LAI; [4]): 1 to 10 nM
- Ki (HIV-1 protease): < 1 nM

Structure (SMILES): COc1ccc(C[C@H](NC(=O)O[C@H]2CCO[C@H]3OCC[C@H]32)[C@H](O)CN(CC(C)C)S(=O)(=O)c2ccc(OC)cc2)cc1 [compound 2]
- IC50 (HIV-1LAI; [4]): < 1 nM
- Ki (HIV-1 protease): < 0.1 nM

Structure (SMILES): COc1ccc(C[C@H](NC(=O)O[C@H]2CCO[C@H]3OCC[C@H]32)[C@H](O)CN(C[C@H]2CCC(=O)N2)S(=O)(=O)c2ccc(OC)cc2)cc1 [compound 3]
- IC50 (HIV-1LAI; [4]): 100 to 1000 nM
- Ki (HIV-1 protease): < 0.1 nM

Structure (SMILES): COc1ccc(C[C@H](NC(=O)O[C@H]2CCO[C@H]3OCC[C@H]32)[C@H](O)CN(C[C@H]2CCC(=O)N2)S(=O)(=O)c2ccc(N)cc2)cc1 [compound 4]
- IC50 (HIV-1LAI; [4]): > 1000 nM
- Ki (HIV-1 protease): < 10 nM

Structure (SMILES): CC(C)CN(C[C@@H](O)[C@H](Cc1ccccc1)NC(=O)O[C@H]1CCO[C@H]2OCC[C@H]21)S(=O)(=O)c1ccc(N)cc1 [compound 36]
- IC50 (HIV-1LAI; [2]): 6.5 nM
- Ki (HIV-1 protease; read-out: Ki): 0.01 nM

Structure (SMILES): CC(C)CN(C[C@@H](O)[C@H](Cc1ccccc1)NC(=O)O[C@H]1CCO[C@H]2OCC[C@H]21)S(=O)(=O)c1ccc(CO)cc1 [compound 37]
- IC50 (HIV-1LAI; [2]): 4.5 nM
- Ki (HIV-1 protease; read-out: Ki): 0.085 nM

Structure (SMILES): CC(C)CN(C[C@@H](O)[C@H](Cc1ccccc1)NC(=O)O[C@H]1CO[C@H]2OCC[C@H]21)S(=O)(=O)c1ccc(N)cc1 [drawing 189]
- IC50 (HIV-1LAI; [1]): < 10 nM

Structure (SMILES): CC(C)(C)NC(=O)[C@@H]1C[C@@H]2CCCC[C@@H]2CN1C[C@@H](O)[C@H](Cc1ccccc1)NC(=O)[C@H](CC(N)=O)NC(=O)c1ccc2ccccc2n1 [saquinavir, reference compound]
- IC50 (HIV-1LAI; [2]): 15 nM
